# According to publication PMC6466579, “Non-Mammalian Prdx6 Enzymes (Proteins with 1-Cys Prdx Mechanism) Display PLA2 Activity Similar to the Human Orthologue” (Antioxidants, 2019):
# Experiments:
# AfPrxC = target: T1, AfPrxC (Aspergillus fumigatus, UniProt B0Y9D7); assay: PLA2 assay, [3H]DPPC liposomes, TLC and scintillation; assay type: biochemical
# T1 construct: gene AFUB_080670
# T1 sequence (B0Y9D7 47-267): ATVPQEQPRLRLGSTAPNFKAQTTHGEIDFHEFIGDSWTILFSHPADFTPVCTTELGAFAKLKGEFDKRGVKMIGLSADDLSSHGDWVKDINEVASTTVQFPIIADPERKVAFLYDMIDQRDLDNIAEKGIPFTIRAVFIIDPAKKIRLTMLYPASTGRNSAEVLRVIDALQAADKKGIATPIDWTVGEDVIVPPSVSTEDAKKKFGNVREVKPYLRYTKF
# AfPrx1 = target: T2, AfPrx1 (Aspergillus fumigatus, UniProt Q4WPA3); assay: as above; assay type: biochemical
# T2 construct: gene AFUA_4G08580; cytosolic 1-Cys Prdx
# T2 sequence (Q4WPA3 1-213): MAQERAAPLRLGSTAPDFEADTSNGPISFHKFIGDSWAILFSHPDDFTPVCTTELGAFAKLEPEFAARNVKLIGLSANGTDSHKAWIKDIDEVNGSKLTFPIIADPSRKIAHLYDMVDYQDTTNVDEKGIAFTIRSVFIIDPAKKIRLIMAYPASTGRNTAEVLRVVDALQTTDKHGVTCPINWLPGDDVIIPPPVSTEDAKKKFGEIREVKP
compound,measurement,setting,value
"CCCCCCCCCCCCCCCCOC[C@H](COCC(F)(F)F)OP(=O)(O)OC [MJ33, 1-hexadecyl-3-trifluoro-ethylglycero-sn-2-phosphomethanol]",inhibition at 200 µM,AfPrxC,~85%
same,inhibition at 200 µM,AfPrx1,~85%
